Laboratory results as given in patent publication US7671054B1, “Reverse-turn mimetics and method relating thereto” (Choongwae Pharma Corporation, priority 2001, dated 2010).
Read-outs that look alike come from different tables or passages of the source.

Tests used:
HCT116 cells = experiment: Growth inhibition assay (MTS); type: cell-based; conditions: Homo sapiens, Table 5, HCT116 cells, 48 hours treatment, MTS, read-out: Growth Inhibition (GI50, uM) HCT116
Experimental: (§1) SW480 or HCT116 cells were placed into 96 well microplate (10^4cells/well) and incubated for 24 hours at 37° C. 20 μl of [3-(4,5-dimethylthiazol-2-yl)-5-(3-carboxyphenyl)-2-(4-sulfophenyl)-2H-tetrazolium, inner salt](MTS) solution (Promega) was added into each well and the absorbance after 2 hour incubation at 37° C. (negative control) was read. And then, the cells were treated with TCF4 compound at various concentrations for 48 hours. 20 μl of MTS solution (Promega) was added into each well and incubated for 2 hour at 37° C. Cell viability was measured by reading the absorbance at 490 nm using a microplate reader (Molecular device) and cytotoxicity of a compound at each concentration was calculated.
as §1, with “a test” for “TCF4”

SW480 cells = experiment: Growth inhibition assay (MTS); type: cell-based; conditions: Homo sapiens, Table 5, SW480 cells
Experimental: as §1
as §1, with “a test” for “TCF4”

[1] = SW480, 48 h, 48 hours treatment, MTS, read-out: Growth Inhibition (GI50, uM) SW480

Row | Compound | GI50 (HCT116 cells; HCT-116, 48 h) [µM] | GI50 (SW480 cells; [1]) [µM] | GI50 (HCT116 cells; HCT-116) [µM] | GI50 (SW480 cells; the cell prints nM, read-out: Growth Inhibition (GI50) SW480) [µM]
1 | CC(C)N(C)c1ccccc1CN1C[C@H]2N(C(=O)CN(C)N2C(=O)NCc2ccccc2)[C@@H](Cc2ccc(O)cc2)C1=O [Compound 30] | 5.4 | 14.1 | – | –
2 | CN(C1CC1)C1CC=CC=C1CN1C[C@H]2N(C(=O)CN(C)N2C(=O)NCc2ccccc2)[C@@H](Cc2ccc(O)cc2)C1=O (some centres unmarked) [Compound 31] | 5 ± 1 | 8.1 ± 0.7 | – | –
3 | CC(C)N(C)c1cccc(Cl)c1CN1C[C@H]2N(C(=O)CN(C)N2C(=O)NCc2ccccc2)[C@@H](Cc2ccc(O)cc2)C1=O [Compound 32] | 16.9 ± 1.9 | 47.2 ± 12.1 | – | –
4 | CC(C)N(C)c1cc(CN2C[C@H]3N(C(=O)CN(C)N3C(=O)NCc3ccccc3)[C@@H](Cc3ccc(O)cc3)C2=O)ccc1Cl [Compound 33] | 28.6 ± 2 | > 50 | – | –
5 | CCCN(C)c1cccc(CN2C[C@H]3N(C(=O)CN(C)N3C(=O)NCc3ccccc3)[C@@H](Cc3ccc(O)cc3)C2=O)c1 [Compound 34] | 6.4 ± 1.3 | 13.8 ± 2.4 | – | –
6 | CN1CC(=O)N2[C@@H](Cc3ccc(O)cc3)C(=O)N(Cc3cccc4c3cnn4C)C[C@@H]2N1C(=O)NCc1ccccc1 [Compound 35] | 5 ± 0.7 | 4.7 ± 0.5 | – | –
7 | CN(c1cccc(CN2C[C@H]3N(C(=O)CN(C)N3C(=O)NCc3ccccc3)[C@@H](Cc3ccc(O)cc3)C2=O)c1)C1CC1 [Compound 36] | 12.7 ± 1.3 | 21.9 ± 2.3 | – | –
8 | C[C@H](c1ccc(F)c(N(C)C)c1)N1C[C@H]2N(C(=O)CN(C)N2C(=O)NCc2ccccc2)[C@@H](Cc2ccc(O)cc2)C1=O [Compound 37] | 9.2 ± 0.9 | 10.4 ± 0.8 | – | –
9 | C[C@H](c1cccc(N(C)C)c1)N1C[C@H]2N(C(=O)CN(C)N2C(=O)NCc2ccccc2)[C@@H](Cc2ccc(O)cc2)C1=O [Compound 38] | 6.9 | 8.5 | – | –
10 | CC(C)N(C)c1cc([C@@H](C)N2C[C@H]3N(C(=O)CN(C)N3C(=O)NCc3ccccc3)[C@@H](Cc3ccc(O)cc3)C2=O)ccc1F [Compound 39] | 19.7 ± 3.3 | 22.8 ± 6.5 | – | –
11 | CN1CC(=O)N2[C@@H](Cc3ccc(O)cc3)C(=O)N(Cc3cccc(N4CCCC4)c3)C[C@@H]2N1C(=O)NCc1ccccc1 [Compound 40] | 5.8 ± 0.4 | 6.4 ± 0.5 | – | –
12 | CCN(CC)c1cc(F)ccc1[C@H](C)N1C[C@H]2N(C(=O)CN(C)N2C(=O)NCc2ccccc2)[C@@H](Cc2ccc(O)cc2)C1=O [Compound 41] | 14.7 ± 2.6 | 34.4 ± 9.6 | – | –
13 | CC(C)N(C)c1cccc([C@@H](C)N2C[C@H]3N(C(=O)CN(C)N3C(=O)NCc3ccccc3)[C@@H](Cc3ccc(O)cc3)C2=O)c1 [Compound 42] | 10.8 | 24.7 | – | –
14 | CN(C)c1ccc(C[C@H]2C(=O)N(Cc3cccc4ccccc34)C[C@H]3N2C(=O)CN(C)N3C(=O)NCc2ccccc2)cc1 [Compound 43] | 39.1 | > 50 | – | –
15 | CN1CC(=O)N2[C@@H](Cc3ccc(NC=O)cc3)C(=O)N(Cc3cccc4ccccc34)C[C@@H]2N1C(=O)NCc1ccccc1 [Compound 44] | 4.2 ± 0.5 | 3.8 ± 0.4 | – | –
16 | C[C@H]1[C@@H]2N(C(=O)CN(C)N2C(=O)NCc2ccccc2)[C@@H](Cc2ccc(O)cc2)C(=O)N1Cc1ccc(F)cc1F [Compound 45] | 2.9 ± 0.4 | 2.5 ± 0.2 | – | –
17 | CN1CC(=O)N2[C@@H](Cc3ccc(O)cc3)C(=O)N(Cc3cccc4[nH]ncc34)C[C@@H]2N1C(=O)NCc1ccccc1 [Compound 47] | 12.2 | 6.2 | – | –
18 | CN1CC(=O)N2[C@@H](Cc3ccc(O)cc3)C(=O)N(Cc3cccc(N4CCCCC4)c3)C[C@@H]2N1C(=O)NCc1ccccc1 [Compound 48] | 15.5 ± 2.3 | 20.7 ± 2.8 | – | –
19 | CN1CC(=O)N2[C@@H](Cc3ccc(O)cc3)C(=O)N(Cc3cccc4cnn(Cc5ccccc5[N+](=O)[O-])c34)C[C@@H]2N1C(=O)NCc1ccccc1 [Compound 51] | 2.8 | 3 ± 0.1 | – | –

Row | Compound | GI50 (HCT116 cells; HCT-116, 48 h) [µM] | GI50 (SW480 cells; [1]) [µM] | GI50 (HCT116 cells; HCT-116) [µM] | GI50 (SW480 cells; the cell prints nM, read-out: Growth Inhibition (GI50) SW480) [µM]
20 | CN1CC(=O)N2[C@@H](Cc3ccc(O)cc3)C(=O)N(Cc3cccc4nnn(C)c34)C[C@@H]2N1C(=O)NCc1ccccc1 [Compound 52] | 9.7 ± 0.9 | 19.3 ± 2.1 | – | –
21 | CN1CC(=O)N2[C@@H](Cc3ccc(O)cc3)C(=O)N(Cc3cccc4c3nnn4C)C[C@@H]2N1C(=O)NCc1ccccc1 [Compound 53] | 4.7 ± 0.4 | 11.4 ± 0.9 | – | –
22 | CN1CC(=O)N2[C@@H](Cc3ccc(O)cc3)C(=O)N(Cc3ccc4ncsc4c3)C[C@@H]2N1C(=O)NCc1ccccc1 [Compound 54] | 4.9 ± 0.7 | 7.1 ± 0.5 | – | –
23 | CN(C)c1cccc(CN2C[C@H]3N(C(=O)CN(C)N3C(=O)NCc3ccccc3)[C@@H](Cc3ccc(O)cc3)C2=O)c1 [Compound 55] | 4.1 ± 0.7 | 4.6 ± 0.5 | – | –
24 | CN(Cc1ccccc1)c1cccc(CN2C[C@H]3N(C(=O)CN(C)N3C(=O)NCc3ccccc3)[C@@H](Cc3ccc(O)cc3)C2=O)c1 [Compound 56] | 9.1 | 10.8 | – | –
25 | C[C@H]1[C@H]2N(C(=O)CN(C)N2C(=O)NCc2ccccc2)[C@@H](Cc2ccc(O)cc2)C(=O)N1Cc1ccc(Cl)c(N(C)C)c1 [Compound 57] | 5.1 ± 0.3 | 3.1 ± 0.3 | – | –
26 | CCOP(=O)(CC(=O)Nc1ccc(C[C@H]2C(=O)N(Cc3cccc4ccccc34)C[C@H]3N2C(=O)CN(C)N3C(=O)NCc2ccccc2)cc1)OCC [Compound 59] | – | – | 55.1 ± 33.7 | > 0.05
27 | CN1CC(=O)N2[C@@H](Cc3ccc(O)cc3)C(=O)N(Cc3cccc4ccccc34)C[C@@H]2N1C(=O)NCc1ccccc1 [Compound 60] | 6.3 ± 2.6 | 8.3 ± 1.4 | – | –
28 | CN1CC(=O)N2[C@@H](Cc3ccc(O)cc3)C(=O)N(Cc3ccc4cnn(Cc5ccccc5N)c4c3)C[C@@H]2N1C(=O)NCc1ccccc1 [Compound 61] | 3.6 ± 0.3 | 11.3 ± 6 | – | –
29 | CN(C)CCn1ncc2cccc(CN3C[C@H]4N(C(=O)CN(C)N4C(=O)NCc4ccccc4)[C@@H](Cc4ccc(O)cc4)C3=O)c21 [Compound 62] | 23.5 ± 2.7 | 35.3 ± 4.6 | – | –
30 | CN1CC(=O)N2[C@@H](Cc3ccc(O)cc3)C(=O)N(Cc3cccc4c3cnn4Cc3ccccc3N)C[C@@H]2N1C(=O)NCc1ccccc1 [Compound 63] | 1.3 ± 0.1 | 18.8 ± 4.8 | – | –
31 | CN1CC(=O)N2[C@@H](Cc3ccc(O)cc3)C(=O)N(Cc3ccc4cn[nH]c4c3)C[C@@H]2N1C(=O)NCc1ccccc1 [Compound 64] | 19 ± 1.6 | 12 ± 0.7 | – | –
32 | CN(Cc1ccccc1N)c1cccc(CN2C[C@H]3N(C(=O)CN(C)N3C(=O)NCc3ccccc3)[C@@H](Cc3ccc(O)cc3)C2=O)c1 [Compound 65] | 4.7 | 7.3 | – | –
33 | CN1CC(=O)N2[C@@H](Cc3ccc(O)cc3)C(=O)N(Cc3cccc4cn(Cc5cccc(N)c5)nc34)C[C@@H]2N1C(=O)NCc1ccccc1 [Compound 66] | 5.8 ± 0.3 | 3 ± 0.3 | – | –
34 | CN1CC(=O)N2[C@@H](Cc3ccc(O)cc3)C(=O)N(Cc3cccc4cnn(Cc5cccc(N)c5)c34)C[C@@H]2N1C(=O)NCc1ccccc1 [Compound 67] | 0.3 ± 0.03 | 0.6 ± 0.2 | – | –
35 | C#CCn1ncc2ccc(CN3C[C@H]4N(C(=O)CN(C)N4C(=O)NCc4ccccc4)[C@@H](Cc4ccc(O)cc4)C3=O)cc21 [Compound 68] | 3.8 ± 0.6 | 3.7 ± 0.2 | – | –
36 | CN1CC(=O)N2[C@@H](Cc3ccc(O)cc3)C(=O)N(Cc3cccc4cnn(CCN5CCOCC5)c34)C[C@@H]2N1C(=O)NCc1ccccc1 [Compound 69] | 9.7 ± 1 | 17.9 ± 3.1 | – | –
37 | CN1CC(=O)N2[C@@H](Cc3ccc(O)cc3)C(=O)N(Cc3ccc4cccnc4c3)C[C@@H]2N1C(=O)NCc1ccccc1 [Compound 70] | 7.2 ± 0.7 | 7.4 ± 0.6 | – | –
